From ChEMBL document CHEMBL4715846, “Discovery of novel 9-heterocyclyl substituted 9H-purines as L858R/T790M/C797S mutant EGFR tyrosine kinase inhibitors” (Eur J Med Chem, 2020)
Blank lines part the entries; values can stand above or below the molecule they belong to. Activity calls are given as the source filed them. The rule behind the calls is not given here.

What was measured:
HCC827 [1] = test: Antiproliferative activity against human HCC827 cells incubated for 72 hrs by MTT assay; assay type: functional, cell-based; conditions: HCC827, 72 h
[2] = biological target: Epidermal growth factor receptor (Homo sapiens, UniProt P00533, C797S/L858R/T790M); test: Inhibition of EGFR L858R/T790M/C797S (unknown origin) using Poly (Glu, Tyr) as substrate measured after 40 mins by kinase-glo assay
NCI-H1975 = test: Antiproliferative activity against human NCI-H1975 cells incubated for 72 hrs by MTT assay; assay type: functional, cell-based; conditions: NCI-H1975, 72 h
A549 = test: Antiproliferative activity against human A549 cells incubated for 72 hrs by MTT assay; assay type: functional, cell-based; conditions: A549, 72 h
A-431 = test: Antiproliferative activity against human A-431 cells incubated for 72 hrs by MTT assay; assay type: functional, cell-based; conditions: A-431, 72 h
HCC827 [3] = test: Induction of apoptosis in human HCC827 cells assessed as viable cells at 1 uM measured after 24 hrs by Annexin V-FITC/propidium iodide staining based flow cytometry (reference value: 77.08%); assay type: functional; conditions: read-out: Activity
HCC827 [4] = test: Induction of apoptosis in human HCC827 cells assessed as early apoptotic cells at 1 uM measured after 24 hrs by Annexin V-FITC/propidium iodide staining based flow cytometry (reference value: 2.49%); assay type: functional
HCC827 [5] = test: Induction of apoptosis in human HCC827 cells assessed as late apoptotic cells at 1 uM measured after 24 hrs by Annexin V-FITC/propidium iodide staining based flow cytometry (reference value: 4.31%); assay type: functional
HCC827 [6] = test: Induction of apoptosis in human HCC827 cells assessed as necrotic cells at 1 uM measured after 24 hrs by Annexin V-FITC/propidium iodide staining based flow cytometry (reference value: 6.12%); assay type: functional
HCC827 [7] = test: Cell cycle arrest in human HCC827 cells assessed as increase in accumulation at G0/G1 phase at 1 uM measured after 24 hrs by propidium iodide staining based flow cytometry; assay type: functional
HCC827 [8] = test: Inhibition of colony formation in human HCC827 cells incubated for 20 days by crystal violet staining based assay; assay type: functional, cell-based; conditions: time 20.0 day
[9] = Selectivity ratio of IC50 for human HCC827 cells to IC50 for human A549 cells; assay type: functional
[10] = Selectivity ratio of IC50 for human HCC827 cells to IC50 for human A-431 cells; assay type: functional
[11] = biological target: Epidermal growth factor receptor (Homo sapiens) (UniProt P00533); test: Inhibition of EGFR phosphorylation in human HCC827 cells measured after 8 hrs by Western blot analysis; assay type: cell-based
[12] = biological target: Epidermal growth factor receptor (Homo sapiens) (UniProt P00533); test: Inhibition of EGFR phosphorylation in human NCI-H1975 cells measured after 8 hrs by Western blot analysis; assay type: cell-based
[13] = biological target: Epidermal growth factor receptor (Homo sapiens) (UniProt P00533); test: Inhibition of EGFR phosphorylation in human A549 cells measured after 8 hrs by Western blot analysis; assay type: cell-based

Chain of Epidermal growth factor receptor (Homo sapiens) (P00533 whole entry): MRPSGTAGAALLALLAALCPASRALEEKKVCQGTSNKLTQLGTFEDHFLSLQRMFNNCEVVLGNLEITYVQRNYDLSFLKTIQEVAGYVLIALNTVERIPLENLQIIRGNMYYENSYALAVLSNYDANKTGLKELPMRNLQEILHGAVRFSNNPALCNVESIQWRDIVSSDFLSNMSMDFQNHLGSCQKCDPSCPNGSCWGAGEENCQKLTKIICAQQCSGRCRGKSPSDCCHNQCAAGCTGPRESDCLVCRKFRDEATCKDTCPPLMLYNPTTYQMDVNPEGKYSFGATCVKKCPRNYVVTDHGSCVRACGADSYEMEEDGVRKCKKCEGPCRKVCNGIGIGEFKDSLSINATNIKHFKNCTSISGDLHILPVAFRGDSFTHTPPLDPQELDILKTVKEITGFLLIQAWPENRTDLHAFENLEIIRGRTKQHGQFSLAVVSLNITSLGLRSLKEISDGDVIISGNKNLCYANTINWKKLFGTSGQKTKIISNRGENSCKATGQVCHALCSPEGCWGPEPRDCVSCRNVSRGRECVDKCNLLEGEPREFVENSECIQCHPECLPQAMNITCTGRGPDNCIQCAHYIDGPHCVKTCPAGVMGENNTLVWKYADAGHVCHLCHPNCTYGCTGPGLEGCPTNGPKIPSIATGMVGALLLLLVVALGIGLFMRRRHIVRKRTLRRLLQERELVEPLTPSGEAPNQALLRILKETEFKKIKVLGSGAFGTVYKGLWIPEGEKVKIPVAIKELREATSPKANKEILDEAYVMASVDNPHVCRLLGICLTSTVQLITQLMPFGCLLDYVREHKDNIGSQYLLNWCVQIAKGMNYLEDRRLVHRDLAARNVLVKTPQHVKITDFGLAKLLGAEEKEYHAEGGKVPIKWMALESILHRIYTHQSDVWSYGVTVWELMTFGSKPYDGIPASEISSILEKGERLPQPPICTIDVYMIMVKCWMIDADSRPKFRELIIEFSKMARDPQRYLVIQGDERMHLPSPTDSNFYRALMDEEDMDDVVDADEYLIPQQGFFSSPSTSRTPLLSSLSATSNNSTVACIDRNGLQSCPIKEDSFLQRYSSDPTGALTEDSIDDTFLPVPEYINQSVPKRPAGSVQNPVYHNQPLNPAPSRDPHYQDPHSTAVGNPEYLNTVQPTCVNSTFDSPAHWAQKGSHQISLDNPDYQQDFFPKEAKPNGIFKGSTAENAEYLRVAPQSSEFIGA
Chain of Epidermal growth factor receptor (P00533 25-1210 T790M/C797S/L858R limits assumed): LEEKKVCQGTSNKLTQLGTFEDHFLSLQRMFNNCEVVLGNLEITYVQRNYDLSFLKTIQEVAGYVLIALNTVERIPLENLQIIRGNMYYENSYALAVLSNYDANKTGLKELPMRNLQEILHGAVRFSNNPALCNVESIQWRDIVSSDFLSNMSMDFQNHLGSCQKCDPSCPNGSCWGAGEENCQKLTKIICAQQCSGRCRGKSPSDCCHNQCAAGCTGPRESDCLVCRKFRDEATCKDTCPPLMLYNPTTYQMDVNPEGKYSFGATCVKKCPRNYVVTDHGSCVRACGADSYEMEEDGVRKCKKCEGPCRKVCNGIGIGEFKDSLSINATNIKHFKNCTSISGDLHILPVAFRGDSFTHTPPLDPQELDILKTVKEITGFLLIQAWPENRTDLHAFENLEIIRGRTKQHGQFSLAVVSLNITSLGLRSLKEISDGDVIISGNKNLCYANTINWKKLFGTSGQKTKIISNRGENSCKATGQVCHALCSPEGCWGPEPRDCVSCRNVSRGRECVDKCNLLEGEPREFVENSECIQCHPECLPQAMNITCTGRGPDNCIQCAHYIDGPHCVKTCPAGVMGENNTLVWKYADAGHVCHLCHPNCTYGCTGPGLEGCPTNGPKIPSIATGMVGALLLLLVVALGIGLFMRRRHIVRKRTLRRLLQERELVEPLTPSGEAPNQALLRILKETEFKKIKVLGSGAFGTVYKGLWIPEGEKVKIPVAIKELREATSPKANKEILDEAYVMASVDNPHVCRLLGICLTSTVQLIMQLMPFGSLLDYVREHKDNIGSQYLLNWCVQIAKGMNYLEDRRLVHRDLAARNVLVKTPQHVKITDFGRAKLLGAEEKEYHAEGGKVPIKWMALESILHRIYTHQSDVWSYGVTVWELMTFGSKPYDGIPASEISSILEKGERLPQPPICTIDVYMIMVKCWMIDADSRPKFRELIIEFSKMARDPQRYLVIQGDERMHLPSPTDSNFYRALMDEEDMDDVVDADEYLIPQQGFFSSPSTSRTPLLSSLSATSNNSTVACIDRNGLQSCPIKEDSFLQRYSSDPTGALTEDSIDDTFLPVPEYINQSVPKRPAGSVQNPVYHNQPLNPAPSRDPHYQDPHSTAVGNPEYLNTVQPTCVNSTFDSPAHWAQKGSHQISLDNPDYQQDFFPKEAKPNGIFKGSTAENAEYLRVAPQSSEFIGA

Structure (SMILES): CN1CCN(c2ccc(Nc3ncc4nc(Nc5ccccc5)n([C@@H]5CCNC5)c4n3)cc2)CC1
IC50 (HCC827 [1]): 65 nM

Structure (SMILES): CN1CCN(c2ccc(Nc3ncc4nc(Nc5ccc(F)cc5)n([C@H]5CCN(C(=O)CO)C5)c4n3)cc2)CC1
IC50 (HCC827 [1]): 380 nM

Structure (SMILES): CNC(=O)CN1CC[C@H](n2c(Nc3ccc(F)cc3)nc3cnc(Nc4ccc(N5CCN(C)CC5)cc4)nc32)C1
IC50 (HCC827 [1]): 1520 nM
IC50 [2]: 561 nM

Structure (SMILES): CCOC(=O)CN1CC[C@H](n2c(Nc3ccc(F)cc3)nc3cnc(Nc4ccc(N5CCN(C)CC5)cc4)nc32)C1
IC50 (HCC827 [1]): 1810 nM

Structure (SMILES): CN1CCN(c2ccc(Nc3ncc4nc(Nc5ccc(F)cc5)n([C@H]5CCN(C(=O)OC(C)(C)C)C5)c4n3)cc2)CC1
IC50 (HCC827 [1]): 580 nM
IC50 [2]: 122 nM

Structure (SMILES): CN1CCN(c2ccc(Nc3ncc4nc(Nc5ccc(F)cc5)n([C@@H]5CCCNC5)c4n3)cc2)CC1
IC50 (HCC827 [1]): 120 nM

Structure (SMILES): CN1CCN(c2ccc(Nc3ncc4nc(Nc5ccc(F)cc5)n([C@@H]5CCNC5)c4n3)cc2)CC1
IC50 (HCC827 [1]): 300 nM

Structure (SMILES): CC(=O)N1CC[C@H](n2c(Nc3ccccc3)nc3cnc(Nc4ccc(N5CCN(C)CC5)cc4)nc32)C1
IC50 (HCC827 [1]): 260 nM

Structure (SMILES): CN1CCN(c2ccc(Nc3ncc4nc(Nc5ccccc5)n([C@H]5CCN(C(=O)OC(C)(C)C)C5)c4n3)cc2)CC1
IC50 (HCC827 [1]): 110 nM

Structure (SMILES): CNC(=O)CN1CC[C@H](n2c(Nc3ccccc3)nc3cnc(Nc4ccc(N5CCN(C)CC5)cc4)nc32)C1
IC50 (HCC827 [1]): 170 nM

Structure (SMILES): CN1CCN(c2ccc(Nc3ncc4nc(Nc5ccccc5)n([C@H]5CCNC5)c4n3)cc2)CC1
IC50 (HCC827 [1]): 530 nM

Structure (SMILES): CN1CCN(c2ccc(Nc3ncc4nc(Nc5ccc(F)cc5)n([C@H]5CCCNC5)c4n3)cc2)CC1
IC50 (HCC827 [1]): 38 nM

Structure (SMILES): CN1CCN(c2ccc(Nc3ncc4nc(Nc5ccc(F)cc5)n([C@@H]5CCCN(C(=O)CO)C5)c4n3)cc2)CC1
IC50 (HCC827 [1]): 66 nM

Structure (SMILES): CN1CCN(c2ccc(Nc3ncc4nc(Nc5ccc(F)cc5)n([C@@H]5CCN(C(=O)CO)C5)c4n3)cc2)CC1
IC50 (HCC827 [1]): 350 nM

Structure (SMILES): CN1CCN(c2ccc(Nc3ncc4nc(Nc5ccc(F)cc5)n(CCNS(=O)(=O)C5CC5)c4n3)cc2)CC1
IC50 (HCC827 [1]): 50 nM

Structure (SMILES): CN1CCN(c2ccc(Nc3ncc4nc(Nc5ccc(F)cc5)n([C@H]5CCNC5)c4n3)cc2)CC1
IC50 (HCC827 [1]): 1220 nM

Structure (SMILES): CN1CCN(c2ccc(Nc3ncc4nc(Nc5ccc(F)cc5)n([C@@H]5CCN(C(=O)OC(C)(C)C)C5)c4n3)cc2)CC1
IC50 (HCC827 [1]): 27 nM

Further lines, with some results ahead:

IC50 (HCC827 [1]): 1.8 nM
IC50 (NCI-H1975): 750 nM
IC50 (A549): 830 nM
IC50 (A-431): 3000 nM
Structure (SMILES): CN1CCN(c2ccc(Nc3ncc4nc(Nc5ccc(F)cc5)n([C@H]5CCCN(C(=O)CO)C5)c4n3)cc2)CC1
viability at 1 µM (HCC827 [3]): 31.5%
Activity (HCC827 [4]): 16.77%
Activity (HCC827 [5]): 42.63%
Activity (HCC827 [6]): 9.11%
Activity (HCC827 [7]): Active
inhibition (HCC827 [8]): Dose-dependent effect

IC50 (HCC827 [1]): 7.5 nM
IC50 (NCI-H1975): 580 nM
IC50 (A549): 150 nM
IC50 (A-431): 1670 nM
Structure (SMILES): CN1CCN(c2ccc(Nc3ncc4nc(Nc5ccc(F)cc5)n([C@H]5CCN(S(=O)(=O)C6CC6)C5)c4n3)cc2)CC1

IC50 (HCC827 [1]): 17 nM
Structure (SMILES): CN1CCN(c2ccc(Nc3ncc4nc(Nc5ccccc5)n([C@H]5CCN(S(C)(=O)=O)C5)c4n3)cc2)CC1

IC50 (HCC827 [1]): 0.88 nM
IC50 (NCI-H1975): 200 nM
IC50 (A549): 2910 nM
IC50 (A-431): > 10000 nM
IC50 [2]: 18 nM
inhibition [11]: Dose-dependent effect
inhibition [12]: Dose-dependent effect
inhibition [13]: Dose-dependent effect
Structure (SMILES): CN1CCN(c2ccc(Nc3ncc4nc(Nc5ccccc5)n([C@@H]5CCN(S(=O)(=O)C6CC6)C5)c4n3)cc2)CC1
Ratio IC50 [9]: 5820
Ratio IC50 [10]: 20000
viability at 1 µM (HCC827 [3]): 28.6%
Activity (HCC827 [4]): 11.22%
Activity (HCC827 [5]): 51.72%
Activity (HCC827 [6]): 8.49%
Activity (HCC827 [7]): Active
inhibition (HCC827 [8]): Dose-dependent effect

IC50 (HCC827 [1]): 8.6 nM
IC50 (NCI-H1975): 1150 nM
IC50 (A549): 1320 nM
IC50 (A-431): 1340 nM
Structure (SMILES): CN1CCN(c2ccc(Nc3ncc4nc(Nc5ccc(F)cc5)n([C@H]5CCCN(S(=O)(=O)C6CC6)C5)c4n3)cc2)CC1

IC50 (HCC827 [1]): 10 nM
Structure (SMILES): CC(=O)Nc1cccc(-n2c(Nc3ccc(F)cc3)nc3cnc(Nc4ccc(N5CCN(C)CC5)cc4)nc32)c1

IC50 (HCC827 [1]): 12 nM
Structure (SMILES): CN1CCN(c2ccc(Nc3ncc4nc(Nc5ccccc5)n([C@@H]5CCN(C(=O)OC(C)(C)C)C5)c4n3)cc2)CC1

IC50 (HCC827 [1]): 2.5 nM
IC50 (NCI-H1975): > 10000 nM
IC50 (A549): > 10000 nM
IC50 (A-431): > 10000 nM
IC50 [2]: 22 nM
inhibition [11]: Dose-dependent effect
inhibition [12]: Dose-dependent effect
inhibition [13]: Dose-dependent effect
Structure (SMILES): CN1CCN(c2ccc(Nc3ncc4nc(Nc5ccc(F)cc5)n([C@@H]5CCN(S(=O)(=O)C6CC6)C5)c4n3)cc2)CC1
viability at 1 µM (HCC827 [3]): 32.5%
Activity (HCC827 [4]): 14.24%
Activity (HCC827 [5]): 45%
Activity (HCC827 [6]): 8.27%
Activity (HCC827 [7]): Active
inhibition (HCC827 [8]): Dose-dependent effect

IC50 (HCC827 [1]): 7.5 nM
IC50 (NCI-H1975): 580 nM
IC50 (A549): 1510 nM
IC50 (A-431): 1670 nM
Structure (SMILES): CN1CCN(c2ccc(Nc3ncc4nc(Nc5ccc(F)cc5)n(-c5cccc(NC(=O)CO)c5)c4n3)cc2)CC1

IC50 (HCC827 [1]): 1.6 nM
IC50 (NCI-H1975): 240 nM
IC50 (A549): 540 nM
IC50 (A-431): 1670 nM
IC50 [2]: 40 nM
inhibition [11]: Dose-dependent effect
inhibition [12]: Dose-dependent effect
inhibition [13]: Dose-dependent effect
Structure (SMILES): CN1CCN(c2ccc(Nc3ncc4nc(Nc5ccccc5)n([C@H]5CCN(S(=O)(=O)C6CC6)C5)c4n3)cc2)CC1
viability at 1 µM (HCC827 [3]): 31.2%
Activity (HCC827 [4]): 20.47%
Activity (HCC827 [5]): 39.86%
Activity (HCC827 [6]): 8.43%
Activity (HCC827 [7]): Active
inhibition (HCC827 [8]): Dose-dependent effect
